Format in all cases: cell-based
The target of assay [1] is T1, human LAT1 (SLC7A5) (Homo sapiens, UniProt Q01650).
T1 construct: host or cells: MDCK-II
Description: Inhibition of LAT1 uptake of probe substrate gabapentin in MDCK-II cells. The settings on record: probe gabapentin 10 µM; positive control JPH203 10 µM. On the procedure: (§1) Transport studies with human PepT1 (SLC15A1), LAT1 (SLC7A5) and MCT1 (SLC16A1) were conducted in MDCK-II cells expressing the human transporter or control cells expressing a vector with Green Fluorescence Protein. Cells were transfected using a proprietary, transient transfection system (OPTI-EXPRESSION Technology, BioIVT). The results from the control cells were used to correct for substrate permeation by routes other than the transporter being investigated in the study. […] Specifically, Net Transporter Mediated Substrate Uptake (pmol/min/cm^2) = (Cellular accumulation in the presence of the transporter) − (Mean cellular accumulation in the absence of the transporter). MDCK-II cells were maintained in DMEM with low glucose and 10% FBS. Cells were used at passages up to 40 were seeded at 60,000 ± 10,000 cells/well on 96-well plates approximately 24 h before transfection, and transport assays were performed approximately 48 h after transfection. […]
(§2) Transport studies with PepT1 were conducted in 96-well cell culture plate with wells containing a monolayer of MDCK-II cells grown on a permeable support and a corresponding 96-well receiver tray. […] Then a 30-µL sample was taken and mixed with 200 µL of scintillation fluid and scintillation counted (1450 Microbeta, Perkin-Elmer). […]

For assay [2], the target named is T2, human MCT1 (SLC16A1) (Homo sapiens, UniProt P53985).
T2 construct: host or cells: MDCK-II
T2 sequence (P53985 1-500): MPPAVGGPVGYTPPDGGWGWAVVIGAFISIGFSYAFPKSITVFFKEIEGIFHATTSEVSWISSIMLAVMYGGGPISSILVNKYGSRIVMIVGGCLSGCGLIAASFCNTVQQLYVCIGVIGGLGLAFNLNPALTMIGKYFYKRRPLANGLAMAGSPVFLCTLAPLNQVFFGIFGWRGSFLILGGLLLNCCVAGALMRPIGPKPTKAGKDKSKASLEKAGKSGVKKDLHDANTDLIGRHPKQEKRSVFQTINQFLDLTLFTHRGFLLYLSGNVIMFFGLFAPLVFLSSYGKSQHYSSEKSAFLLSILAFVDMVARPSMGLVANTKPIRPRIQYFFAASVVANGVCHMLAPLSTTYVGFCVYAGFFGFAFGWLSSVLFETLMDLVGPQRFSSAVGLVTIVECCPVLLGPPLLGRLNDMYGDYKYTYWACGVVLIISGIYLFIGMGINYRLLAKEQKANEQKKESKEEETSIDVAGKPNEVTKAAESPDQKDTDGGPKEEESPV
Description: Inhibition of MCT1 uptake of probe substrate 2-thiophene glyoxylate in MDCK-II cells. On the procedure:
(§3) Transport studies with human PepT1 (SLC15A1), LAT1 (SLC7A5) and MCT1 (SLC16A1) were conducted in MDCK-II cells expressing the human transporter or control cells expressing a vector with Green Fluorescence Protein. Cells were transfected using a proprietary, transient transfection system (OPTI-EXPRESSION Technology, BioIVT). The results from the control cells were used to correct for substrate permeation by routes other than the transporter being investigated in the study. […] Specifically, Net Transporter Mediated Substrate Uptake (pmol/min/cm^2) = (Cellular accumulation in the presence of the transporter) − (Mean cellular accumulation in the absence of the transporter). MDCK-II cells were maintained in DMEM with low glucose and 10% FBS. Cells were used at passages up to 40 were seeded at 60,000 ± 10,000 cells/well on 96-well plates approximately 24 h before transfection, and transport assays were performed approximately 48 h after transfection. Transport studies in MDCK-II cells were conducted in 96-well insert plates with permeable membrane (0.4 µm) and receiver tray (Millipore MultiScreen Filter 96-well).
Transport studies with PepT1 were conducted in 96-well cell culture plate with wells containing a monolayer of MDCK-II cells grown on a permeable support and a corresponding 96-well receiver tray. Cell plates are maintained at 37 °C in 5% CO2 atmosphere prior to initiation of the transport experiment. Pre-incubation was conducted in HBSS, pH 7.4. The transport experiments were conducted in HBSS with Bis–Tris, pH 5.5, without phenol red. Both pre-incubation and incubation were conducted at 37 °C. All final assay solutions of probe substrate, reference inhibitor or test article contain 0.5% (v/v) DMSO (vehicle control). The culture plate insert […] was washed with warm HBSS three times and then blotted dry. The culture plate wells […] were washed with warm HBSS three times. 100 µL of 37 °C HBSS pH 7.4 pre-incubation buffer to the apical compartment as follows: for the probe substrate transport assay, the HBSS contains vehicle; for the reference inhibition assay, the HBSS contains the reference inhibitor at the required concentration; for the test article assays, the HBSS in each well contains test compound at the specified concentration. The plates were incubated at 37 °C with orbital shaking at approximately 60 rpm for the pre-incubation (30 min), aspirated and then 100 µL of the experimental buffer was added. […] Then a 30-µL sample was taken and mixed with 200 µL of scintillation fluid and scintillation counted (1450 Microbeta, Perkin-Elmer). […]

Assay [3] deals with T1, human LAT1 (SLC7A5). Description: LAT1-mediated cellular uptake in transfected MDCK-II cells. The settings on record: HBSS pH 7.4, 3 min, 37 °C. On the procedure: as §1, §2
Assay [4] addresses T2, human MCT1 (SLC16A1). Description: MCT1-mediated cellular uptake in transfected MDCK-II cells. The settings on record: 1 min, room temperature, Michaelis-Menten fit. On the procedure: as §3
Transport studies with PepT1 were conducted in 96-well cell culture plate with wells containing a monolayer of MDCK-II cells grown on a permeable support and a corresponding 96-well receiver tray. Cell plates are maintained at 37 °C in 5% CO2 atmosphere prior to initiation of the transport experiment. Pre-incubation was conducted in HBSS, pH 7.4. The transport experiments were conducted in HBSS with Bis–Tris, pH 5.5, without phenol red. Both pre-incubation and incubation were conducted at 37 °C. All final assay solutions of probe substrate, reference inhibitor or test article contain 0.5% (v/v) DMSO (vehicle control). The culture plate insert […] was washed with warm HBSS three times and then blotted dry. The culture plate wells […] were washed with warm HBSS three times. […] Then a 30-µL sample was taken and mixed with 200 µL of scintillation fluid and scintillation counted (1450 Microbeta, Perkin-Elmer). […]

T1 sequence (Q01650 whole entry): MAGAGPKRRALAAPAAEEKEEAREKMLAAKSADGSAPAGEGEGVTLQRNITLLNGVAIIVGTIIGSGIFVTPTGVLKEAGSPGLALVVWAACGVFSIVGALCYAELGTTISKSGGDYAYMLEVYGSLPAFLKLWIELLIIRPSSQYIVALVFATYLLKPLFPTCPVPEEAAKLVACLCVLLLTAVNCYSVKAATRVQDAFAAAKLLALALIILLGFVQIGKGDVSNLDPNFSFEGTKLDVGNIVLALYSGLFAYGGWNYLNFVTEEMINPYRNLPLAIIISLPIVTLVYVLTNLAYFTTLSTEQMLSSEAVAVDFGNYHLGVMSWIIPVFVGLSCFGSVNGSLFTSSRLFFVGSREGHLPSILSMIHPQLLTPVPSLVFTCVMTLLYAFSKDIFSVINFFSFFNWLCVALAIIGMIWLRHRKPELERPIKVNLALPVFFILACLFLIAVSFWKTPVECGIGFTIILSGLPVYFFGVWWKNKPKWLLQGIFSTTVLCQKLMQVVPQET
T1 sequence (P08195 102-630 partner): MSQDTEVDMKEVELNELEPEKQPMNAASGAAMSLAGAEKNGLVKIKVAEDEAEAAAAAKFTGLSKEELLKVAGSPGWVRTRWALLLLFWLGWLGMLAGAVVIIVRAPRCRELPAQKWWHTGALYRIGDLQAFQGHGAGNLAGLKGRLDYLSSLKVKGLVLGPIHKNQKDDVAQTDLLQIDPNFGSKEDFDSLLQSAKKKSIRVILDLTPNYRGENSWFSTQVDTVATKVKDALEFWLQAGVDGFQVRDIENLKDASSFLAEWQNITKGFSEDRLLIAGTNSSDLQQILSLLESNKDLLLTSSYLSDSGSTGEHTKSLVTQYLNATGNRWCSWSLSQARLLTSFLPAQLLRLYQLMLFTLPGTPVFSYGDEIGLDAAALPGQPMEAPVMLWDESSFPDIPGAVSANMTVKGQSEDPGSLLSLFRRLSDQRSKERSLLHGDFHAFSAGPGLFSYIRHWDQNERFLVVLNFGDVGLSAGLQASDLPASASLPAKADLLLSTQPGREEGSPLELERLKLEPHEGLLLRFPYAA

As to `CC(=O)N[C@@H](CC(C)C)C(=O)O` [N-acetyl-L-leucine], at human LAT1 (SLC7A5) [1], the “inhibitor of LAT1” value is recorded as “nor an inhibitor”. Further, the Ki at human MCT1 (SLC16A1) [2] (Cheng-Prusoff equation from IC50, competitive inhibition assumed, read-out: affinity (Ki) MCT1) is 4.3 mM. For the same molecule, at human MCT1 (SLC16A1) [2] (probe 2-thiophene glyoxylate 500 µM, positive control phloretin 500 µM), the IC50 was 15 mM. Besides, the figures for the “substrate of LAT1 (uptake)” value on human LAT1 (SLC7A5) [3] and on human LAT1 (SLC7A5) [3] (listed as N-acetyl-leucine) were “not transported” and “not a substrate”, respectively. For the same molecule, the “Vmax MCT1 uptake” value on human MCT1 (SLC16A1) [4] came to 224.

One may read the Ki as the dissociation constant of the complex between target and ligand, obtained from inhibition or displacement. Usually IC50 stands for the point on the concentration scale where inhibition reaches its midpoint. High values mean lower potency, low ones higher potency.

These data come from publication PMC8338929, “Acetylation turns leucine into a drug by membrane transporter switching” (Scientific Reports, 2021).
